Conditions: in NMP

O=C1OC(=O)[C@H]2[C@@H]1[C@@H]1C=C[C@H]2C1
Conditions | solubility (mole fraction)
278.15 K | 0.112
283.15 K | 0.126
288.15 K | 0.14
293.15 K | 0.156
298.15 K | 0.172
303.15 K | 0.19
308.15 K | 0.209
313.15 K | 0.225
318.15 K | 0.245
323.15 K | 0.265

Source: BigSolDB 2.1
